In data set [1] the test system is MRC-5 human fibroblast cell lines. The experiment in a line: Cytotoxicity on MRC-5 human fibroblast cell lines (Alamar Blue/resazurine, 24 h). The data set is classed as cell-based. Conditions: MRC-5 cells, 24 hours incubation, 1% DMSO. The protocol: The toxic effect of the compounds was measured on MRC-5 human fibroblast cell lines in accordance with the method that has been described in the article published by Molnár et al. [L. Molnár, G. M. Keserü, Á. Papp, Z. Lörincz, G. Ambrus és F. Darvas.: A neural network based classification scheme for cytotoxicity predictions: Validation on 30,000 compounds, Bioorg. Med. Chem. Lett. 16(4), 1037-9 (2006)]. The cells were incubated for a cell cycle (24 hours) with solutions of various concentrations prepared from the compounds, in the presence of 1% of DMSO. 3 parallel measurements were carried out with 6 different concentrations. The ratio of the viable cells was determined by reducing the Alamaar Blue (resazurine) reagent that was followed fluorimetrically. The measured materials were not toxic on the given cell line in a concentration of 128 μmol after incubation for one day.
In the following Table 1 the cytotoxicity of some compounds according to the invention is given.

The test system of data set [2] is P-glycoprotein. The experiment in a line: Reversal of multidrug resistance: rhodamine 123 accumulation in human mdr1 transfected L5178 mouse T-cell lymphoma cells (flow cytometry). Conditions: for Multidrug resistance reversing effect (in words): 4 and 40 μg/mL, at higher concentration multiple of fluorescence activity of Verapamil; for Vrel = effect related to Verapamil: Verapamil at 10 μg/ml; for R = ratio of fluorescence and activity / R (activity ratio, fluorescence): rhodamine 123; for R: Table 4 concentration series; for Multidrug resistance reversing effect at lower concentrations (in words): lower concentration (4 μg/mL), similar values at higher concentration, indicating saturation. It is filed as cell-based. As for the experimental part:
L5178 mouse T-cell lymphoma cells were transfected with pHa MDR1/A retrovirus, by the method as described by J. L. Weaver [J. L. Weaver, G. Szabó, P. S. Pine, M. M. Gottesmann, S. Goldenberg and A. Aszalos: The effect of ion channel blockers, immunosuppressive agents and other drugs on the activity of the multidrug transporter. Int. […] Mdr-1-expressing cell lines were selected by culturing the transfected cells with 60 ng/mL of colchicine to maintain the expression of the MDR phenotype. L5178 (parent) mouse T-cell lymphoma cells and the human mdr1 transfected subline were cultured in McCoy's 5A medium supplemented with 10% by mass of heath-inactivated horce serum, L-glutamine and antibiotics. Both cell lines were cultured at 37° C. The mouse lymphoma cell line was maintained in a 5% CO2 atmosphere.
The assays were carried out by the method as described by J. Molnár et al. [J. Molnár, I. Mucsi, J. Nacsa, A. Hevér, N. Gyémánt, K. Ugocsai, P. Hegyes, S. Kiessig, D. Gaal, H. Lage and A. Varga: New silicon compounds as resistance modifiers against multidrug-resistant cells. […] The cell density was set to a value of 2×10^6/mL, then the cells were resuspended in a serum-free McCoy's 5A medium and divided in aliquots of 0.5 mL in Eppendorf centrifuge tubes. The tested compounds were added in different concentrations to different volumes (2.0-20.0 μL) of 1.0-10.0 mg/mL stock solutions and the samples were incubated for 10 minutes at room temperature. […] The fluorescence of the cell population was measured with a Beckton Dickinson FACScan flow cytometer. […] The percentage value of the mean fluorescence intensity was calculated for the treated MDR and for the parental cell lines as compared with the values obtained with the untreated cells. The activity ratio (R) was calculated on the basis of the measured fluorescence values by the following equation: […]

`CCOC(=O)[C@H]1C[C@H]2C[C@@H]([C@H]1N(Cc1ccccc1)C(=S)Nc1cccc(OC)c1)C2(C)C` [Compound 47, (1R,2R,3S,5R)-1-Benzyl-1-(3-Ethoxycarbonyl-6,6-Dimethylbicyclo[3.1.1]Heptan-2-yl)-3-(3-Methoxyphenyl)-Thiourea] displayed a melting point of 109 to 112 °C. For the same compound, the “Survival (%) [c = 128 μM]” value in data set [1] was 97.7%. In addition, the “Effect in concentration series (in words)” value in data set [2] (0.04, 0.08, 0.4, 0.8 and 4 μg/mL) is “Dose-dependence was observed”. In addition, in data set [2], the “Multidrug resistance reversing effect (in words)” value is listed as “significant dose-dependent effect” and the “Multidrug resistance reversing effect at lower concentrations (in words)” value was “considerable multidrug resistance reversing effect”. Also, in data set [2] (Table 3, 4 μg/ml), the “Vrel = effect related to Verapamil” value stood at 3.02; the “R = ratio of fluorescence and activity” value is recorded as 34.76. Moreover, in data set [2] (Table 3, 40 μg/ml), the “Vrel = effect related to Verapamil” value was found to be 3.07; the “R = ratio of fluorescence and activity” value came to 35.35. Also, in data set [2] (0.04 μg/ml), the R was 1.44. Further, in data set [2] (0.08 μg/ml), the R was determined as 1.60. Further, in data set [2] (0.4 μg/ml), the R was 6.03. The R in data set [2] (0.8 μg/ml) was found to be 7.16. Moreover, the R in data set [2] (4 μg/ml) is 35.20. In addition, the “Concentration sufficient for a significant P-glycoprotein-inhibiting effect” value in data set [2] (concentration series 0.04-4 μg/mL) worked out at 0.4 µg/mL.
`CCOC(=O)[C@@H]1C[C@H]2C[C@@H]([C@H]1NC(=S)Nc1cccc(OC)c1)C2(C)C` [Compound 49, (1R,2R,3R,5R)-1-(3-Ethoxycarbonyl-6,6-Dimethylbicyclo[3.1.1]Heptan-2-yl)-3-(3-Methoxyphenyl)-Thiourea] gave a melting point of 118 to 120 °C. Moreover, in data set [1], the “Survival (%) [c = 128 μM]” value was found to be 250.9%. The “Multidrug resistance reversing effect (in words)” value in data set [2] was “significant dose-dependent effect”. Further, in data set [2] (Table 2, 4 μg/ml), the “Vrel = effect related to Verapamil” value is 0.56 and the “R (activity ratio, fluorescence)” value was determined as 2.77. In addition, in data set [2] (Table 2, 40 μg/ml), the “Vrel = effect related to Verapamil” value worked out at 5.71 and the “R (activity ratio, fluorescence)” value is 28.07.
`CCOC(=O)[C@@H]1C[C@H]2C[C@@H]([C@H]1NC(=O)Nc1ccc(Cl)cc1)C2(C)C` [Compound 50, (1R,2R,3R,5R)-1-(3-Ethoxycarbonyl-6,6-Dimethylbicyclo[3.1.1]Heptan-2-yl)-3-(4-Chlorophenyl)-Urea] gave a melting point of 167 to 169 °C. Besides, the “Survival (%) [c = 128 μM]” value in data set [1] was 167.6%. The “Multidrug resistance reversing effect (in words)” value in data set [2] was “significant dose-dependent effect”. Further, in data set [2] (Table 3, 4 μg/ml), the “Vrel = effect related to Verapamil” value was found to be 0.16; the “R = ratio of fluorescence and activity” value is given as 1.87. In addition, in data set [2] (Table 3, 40 μg/ml), the “Vrel = effect related to Verapamil” value was 3.70; the “R = ratio of fluorescence and activity” value turned out to be 42.58.
With `CCOC(=O)[C@@H]1C[C@H]2C[C@@H]([C@H]1N(Cc1ccccc1)C(=S)Nc1cccc(OC)c1)C2(C)C` [Compound 52, (1R,2R,3R,5R)-1-Benzyl-1-(3-Ethoxycarbonyl-6,6-Dimethylbicyclo[3.1.1]-Heptan-2-yl)-3-(3-Methoxyphenyl)-Thiourea], the melting point lay in the range of 110 to 111 °C. For the same compound, the “Survival (%) [c = 128 μM]” value in data set [1] is 113.0%. Further, in data set [2] (Table 3, 4 μg/ml), the “Vrel = effect related to Verapamil” value was 1.90; the “R = ratio of fluorescence and activity” value was 21.87. In data set [2] (Table 3, 40 μg/ml), the “Vrel = effect related to Verapamil” value stood at 2.13; the “R = ratio of fluorescence and activity” value is recorded as 24.44. The “Multidrug resistance reversing effect at lower concentrations (in words)” value in data set [2] is “considerable multidrug resistance reversing effect”.

The values are drawn from patent US8183292B2, “Chiral cyclic β-amino acids and their derivatives, pharmaceutical compositions containing them and the use of such compounds” (BioBlocks Magyarorszag Gyogyszerkemiai es Fejleszto Kft., priority 2006, dated 2012).
